Experimental findings from ChEMBL document CHEMBL4433247, “Discovery of 2,3'-diindolylmethanes as a novel class of PCSK9 modulators” (Bioorg Med Chem Lett, 2019) are described below.

The term IC50 denotes the midpoint of a concentration-inhibition curve.

What all share (type): cell-based
Series [1] deals with HepG2. Nature of the series: Cytotoxicity against human HepG2 cells incubated for 24 hrs by MTT assay. Particulars: hepg2, 24 h; call rule not given here.
In series [2] the target is T1, Proprotein convertase subtilisin/kexin type 9 (Homo sapiens, UniProt Q8NBP7). Nature of the series: Inhibition of human PCSK9 in HepG2 cells incubated for 48 hrs by AlphaLISA assay.
Series [3] deals with HepG2. Nature of the series: Cytotoxicity against human HepG2 cells at <50 uM incubated for 24 hrs by MTT assay. Particulars: hepg2, 24 h.
Series [4] deals with T1, Proprotein convertase subtilisin/kexin type 9. Briefly: Inhibition of human PCSK9 in HepG2 cells incubated for 24 hrs followed by medium replenishment and measured after 24 hrs by ELISA. (ELISA stands for enzyme-linked immunosorbent assay.)

Structures are written as SMILES.

T1 sequence (Q8NBP7 31-152 limits assumed): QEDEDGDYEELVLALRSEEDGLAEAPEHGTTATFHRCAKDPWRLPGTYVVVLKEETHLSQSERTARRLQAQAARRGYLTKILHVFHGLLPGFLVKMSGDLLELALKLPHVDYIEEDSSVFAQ
T1 sequence (Q8NBP7 153-692 limits assumed): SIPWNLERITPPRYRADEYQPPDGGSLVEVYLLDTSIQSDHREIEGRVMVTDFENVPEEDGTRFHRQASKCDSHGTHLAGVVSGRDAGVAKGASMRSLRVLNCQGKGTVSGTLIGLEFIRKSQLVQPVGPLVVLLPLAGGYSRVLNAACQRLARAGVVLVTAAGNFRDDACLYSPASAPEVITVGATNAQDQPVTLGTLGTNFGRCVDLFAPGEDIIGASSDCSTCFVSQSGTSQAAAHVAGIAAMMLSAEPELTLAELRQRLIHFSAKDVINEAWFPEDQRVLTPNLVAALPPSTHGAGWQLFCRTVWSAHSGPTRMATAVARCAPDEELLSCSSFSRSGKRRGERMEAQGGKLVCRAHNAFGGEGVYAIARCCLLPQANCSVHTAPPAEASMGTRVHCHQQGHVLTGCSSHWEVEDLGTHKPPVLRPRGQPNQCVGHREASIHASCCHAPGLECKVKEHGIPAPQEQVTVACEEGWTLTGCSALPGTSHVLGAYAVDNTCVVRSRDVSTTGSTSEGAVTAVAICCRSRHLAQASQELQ

The molecule `Clc1cccc2c(Cc3cc4ccccc4[nH]3)c[nH]c12` had an Activity with HepG2 [1] of more than 50 µM. Also, the IC50 in series [2] (read-out: IC50) was 2800 nM.
The like results for `Cc1cccc2c(Cc3cc4ccccc4[nH]3)c[nH]c12` were, in that order, more than 50 µM and 900 nM.
The like results for `Cc1ccc(S(=O)(=O)n2c(Cc3cn(C)c4ccccc34)c(C(C)C)c3ccccc32)cc1` were, in that order, more than 50 µM and 1100 nM.
For `Fc1ccc2[nH]c(Cc3c[nH]c4c(F)cccc34)cc2c1`, the Activity result with HepG2 [3] is on record as “Non-Toxic”. Further, in series [4], the IC50 is 202 nM.
Molecule `Fc1ccc2[nH]c(Cc3c[nH]c4c(Cl)cccc34)cc2c1` registered an Activity in the series with HepG2 [1] of more than 50 µM. Also, in series [2] (read-out: IC50), the IC50 came to 250 nM.
In the series with HepG2 [1], `Clc1ccc2[nH]cc(Cc3cc4ccccc4[nH]3)c2c1` gave an Activity of more than 50 µM. Moreover, the IC50 in series [2] (read-out: IC50) came out at 10000 nM.
Turning to `Cc1ccc(S(=O)(=O)n2c(Cc3c[nH]c4c(Cl)cccc34)c(C)c3ccccc32)cc1`, the Activity in the series with HepG2 [1] is more than 50 µM. For the same molecule, the IC50 in series [2] (read-out: IC50) came to 2300 nM.
The like results for `Cc1ccc2[nH]cc(Cc3cc4ccccc4[nH]3)c2c1` were, in that order, more than 50 µM and 5600 nM.
In the case of `Cc1ccc(S(=O)(=O)n2c(Cc3cn(C)c4ccccc34)c(C)c3ccccc32)cc1`, the Activity in the series on HepG2 [1] came out at 45 µM. The 50% inhibitory concentration (IC50) in series [2] (read-out: IC50) came out at 1500 nM.
In the case of `Brc1ccc2[nH]cc(Cc3cc4ccccc4[nH]3)c2c1`, the IC50 entry in series [2] (hepg2) is “Not Active”.
`Cc1ccc2c(Cc3cc4ccccc4[nH]3)c[nH]c2c1` returned an Activity in the series with HepG2 [1] of 45 µM. In addition, the IC50 in series [2] (read-out: IC50) worked out at 1400 nM.
The like results for `Fc1cccc2c(Cc3cc4ccccc4[nH]3)c[nH]c12` were, in that order, 38 µM and 300 nM.
The like results for `Cc1ccc(S(=O)(=O)n2c(Cc3cn(C)c4ccccc34)c(-c3ccccc3)c3ccccc32)cc1` were, in that order, 48 µM and 2300 nM.
